Test system: 966289-007-R4-J1-PDC complex spheroid viability
Assay: Anticancer human tumor 966289-007-R4-J1-PDC patient-derived pancreatic adenocarcinoma cell line growth inhibition [RAS]
Settings: for IC50: curve of first compound; for viability, T/C: stronger effect = lower value
Outline: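 Agents were tested in combination matrices in half-log decrements from a top concentration at or near clinical Cmax (10 microM if undetermined). Targets were multi-cell spheroids of tumour lines plus HUVEC and MSC stromal cells.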

[1] = second compound 0.000949 µM, first compound 0.0316 µM
[2] = second compound 0.000949 µM, first compound 0.1 µM
[3] = second compound 0.000949 µM, first compound 0.316 µM
[4] = second compound 0.000949 µM, first compound 1 µM
[5] = second compound 0.000949 µM, first compound 3.16 µM
[6] = second compound 0.000949 µM, first compound 10 µM
[7] = second compound 0.003 µM, first compound 0.0316 µM
[8] = second compound 0.003 µM, first compound 0.1 µM
[9] = second compound 0.003 µM, first compound 0.316 µM
[10] = second compound 0.003 µM, first compound 1 µM
[11] = second compound 0.003 µM, first compound 3.16 µM
[12] = second compound 0.003 µM, first compound 10 µM
[13] = second compound 0.00949 µM, first compound 0.0316 µM
[14] = second compound 0.00949 µM, first compound 0.1 µM
[15] = second compound 0.00949 µM, first compound 0.316 µM
[16] = second compound 0.00949 µM, first compound 1 µM
[17] = second compound 0.00949 µM, first compound 3.16 µM
[18] = second compound 0.00949 µM, first compound 10 µM
[19] = second compound 0.03 µM, first compound 0.0316 µM
[20] = second compound 0.03 µM, first compound 0.1 µM
[21] = second compound 0.03 µM, first compound 0.316 µM
[22] = second compound 0.03 µM, first compound 1 µM
[23] = second compound 0.03 µM, first compound 3.16 µM
[24] = second compound 0.03 µM, first compound 10 µM
[25] = second compound 0.0949 µM, first compound 0.0316 µM
[26] = second compound 0.0949 µM, first compound 0.1 µM
[27] = second compound 0.0949 µM, first compound 0.316 µM
[28] = second compound 0.0949 µM, first compound 1 µM
[29] = second compound 0.0949 µM, first compound 3.16 µM
[30] = second compound 0.0949 µM, first compound 10 µM
[31] = second compound 0.3 µM, first compound 0.0316 µM
[32] = second compound 0.3 µM, first compound 0.1 µM
[33] = second compound 0.3 µM, first compound 0.316 µM
[34] = second compound 0.3 µM, first compound 1 µM
[35] = second compound 0.3 µM, first compound 3.16 µM
[36] = second compound 0.3 µM, first compound 10 µM
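Note: spheroids exposed to agents for one week before readout.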
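Throughout, for viability, T/C: percent viability relative to DMSO vehicle control wells as 100%.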

Compound `CC(C)NCC(C(=O)N1CCN(c2ncnc3c2C(C)CC3O)CC1)c1ccc(Cl)cc1` (stereo unspecified) + CCn1c(-c2cccnc2C(C)OC)c2c3cc(ccc31)N1CCOC(CC(NC(=O)C(C(C)C)N(C)C(=O)C3(F)CCN(C(=O)C#CC(C)(C)N(C)C)CC3)C(=O)N3CCCC(N3)C(=O)OCC(C)(C)C2)C1 has an IC50 (second compound 0.000949 µM) of 2.76 µM, an IC50 (second compound 0.003 µM) of 4.85 µM and an IC50 (second compound 0.00949 µM) of 5.11 µM. The IC50 (second compound 0.03 µM) was 6.16 µM, the IC50 (second compound 0.0949 µM) was 6.64 µM and the IC50 (second compound 0.3 µM) was 5.35 µM. It also gave a viability, T/C [1] of 99.4%, a viability, T/C [2] of 94.4% and a viability, T/C [3] of 117%. It also gave a viability, T/C [4] of 85.7%, a viability, T/C [5] of 46.3% and a viability, T/C [6] of 28.5%. It also gave a viability, T/C [7] of 99.2%, a viability, T/C [8] of 82.3% and a viability, T/C [9] of 98.9%. The viability, T/C [10] was 94.6%, the viability, T/C [11] was 62.2% and the viability, T/C [12] was 29.4%. It also gave a viability, T/C [13] of 70.3%, a viability, T/C [14] of 89.2% and a viability, T/C [15] of 97.2%. It also gave a viability, T/C [16] of 114%, a viability, T/C [17] of 62% and a viability, T/C [18] of 33.2%. For the same compound, the viability, T/C [19] was 57.3%, the viability, T/C [20] was 72.6% and the viability, T/C [21] was 103%. The viability, T/C [22] was 92.4%, the viability, T/C [23] was 62.3% and the viability, T/C [24] was 41.1%. For the same compound, the viability, T/C [25] was 63.9%, the viability, T/C [26] was 94.5% and the viability, T/C [27] was 126%. The viability, T/C [28] was 90.8%, the viability, T/C [29] was 75.6% and the viability, T/C [30] was 35.9%. It also gave a viability, T/C [31] of 92.5%, a viability, T/C [32] of 97% and a viability, T/C [33] of 107%. For the same compound, the viability, T/C [34] was 99.9%, the viability, T/C [35] was 58% and the viability, T/C [36] was 40.4%.

With `CC(Nc1ccc2c(c1)OCCn1cc(N3C(=O)OCC3C(F)F)nc1-2)C(N)=O` (stereo unspecified) + CCn1c(-c2cccnc2C(C)OC)c2c3cc(ccc31)N1CCOC(CC(NC(=O)C(C(C)C)N(C)C(=O)C3(F)CCN(C(=O)C#CC(C)(C)N(C)C)CC3)C(=O)N3CCCC(N3)C(=O)OCC(C)(C)C2)C1 the IC50 (second compound 0.000949 µM) was over 10 µM, the IC50 (second compound 0.003 µM) was over 10 µM and the IC50 (second compound 0.00949 µM) was over 10 µM. For the same compound, the IC50 (second compound 0.03 µM) was over 10 µM, the IC50 (second compound 0.0949 µM) was over 10 µM and the IC50 (second compound 0.3 µM) was over 10 µM. For the same compound, the viability, T/C [1] was 97.2%, the viability, T/C [2] was 114% and the viability, T/C [3] was 121%. It also gave a viability, T/C [4] of 77.1%, a viability, T/C [5] of 90.5% and a viability, T/C [6] of 74.9%. It also gave a viability, T/C [7] of 93.7%, a viability, T/C [8] of 99.9% and a viability, T/C [9] of 111%. It also gave a viability, T/C [10] of 83.4%, a viability, T/C [11] of 78.2% and a viability, T/C [12] of 86.1%. The viability, T/C [13] was 73.8%, the viability, T/C [14] was 105% and the viability, T/C [15] was 111%. For the same compound, the viability, T/C [16] was 92.6%, the viability, T/C [17] was 103% and the viability, T/C [18] was 77.3%. For the same compound, the viability, T/C [19] was 60.7%, the viability, T/C [20] was 94.2% and the viability, T/C [21] was 106%. For the same compound, the viability, T/C [22] was 82.3%, the viability, T/C [23] was 114% and the viability, T/C [24] was 88.5%. The viability, T/C [25] was 69.8%, the viability, T/C [26] was 91.7% and the viability, T/C [27] was 105%. The viability, T/C [28] was 108%, the viability, T/C [29] was 105% and the viability, T/C [30] was 82%. It also gave a viability, T/C [31] of 101%, a viability, T/C [32] of 94.8% and a viability, T/C [33] of 124%. For the same compound, the viability, T/C [34] was 97%, the viability, T/C [35] was 135% and the viability, T/C [36] was 73.8%.

In the case of `O=C(c1ccc(F)c(F)c1Nc1ccc(I)cc1F)N1CC(O)([C@@H]2CCCCN2)C1` + CCn1c(-c2cccnc2C(C)OC)c2c3cc(ccc31)N1CCOC(CC(NC(=O)C(C(C)C)N(C)C(=O)C3(F)CCN(C(=O)C#CC(C)(C)N(C)C)CC3)C(=O)N3CCCC(N3)C(=O)OCC(C)(C)C2)C1, the IC50 (second compound 0.000949 µM) is reported as over 1 µM, the IC50 (second compound 0.003 µM) is reported as over 1 µM and the IC50 (second compound 0.00949 µM) is reported as 0.94 µM. For the same compound, the IC50 (second compound 0.03 µM) was 0.848 µM, the IC50 (second compound 0.0949 µM) was over 1 µM and the IC50 (second compound 0.3 µM) was 0.661 µM. The viability, T/C (second compound 0.000949 µM, first compound 0.00316 µM) was 95.6%, the viability, T/C (second compound 0.000949 µM, first compound 0.01 µM) was 94.9% and the viability, T/C [1] was 102%. It also gave a viability, T/C [2] of 84.4%, a viability, T/C [3] of 78.9% and a viability, T/C [4] of 60.3%. For the same compound, the viability, T/C (second compound 0.003 µM, first compound 0.00316 µM) was 76.5%, the viability, T/C (second compound 0.003 µM, first compound 0.01 µM) was 82.9% and the viability, T/C [7] was 99.5%. For the same compound, the viability, T/C [8] was 79.5%, the viability, T/C [9] was 86.1% and the viability, T/C [10] was 59.4%. The viability, T/C (second compound 0.00949 µM, first compound 0.00316 µM) was 79.6%, the viability, T/C (second compound 0.00949 µM, first compound 0.01 µM) was 84.6% and the viability, T/C [13] was 85.2%. For the same compound, the viability, T/C [14] was 89%, the viability, T/C [15] was 83.9% and the viability, T/C [16] was 48.1%. For the same compound, the viability, T/C (second compound 0.03 µM, first compound 0.00316 µM) was 72.8%, the viability, T/C (second compound 0.03 µM, first compound 0.01 µM) was 86.5% and the viability, T/C [19] was 101%. For the same compound, the viability, T/C [20] was 74.1%, the viability, T/C [21] was 84.1% and the viability, T/C [22] was 44.3%. For the same compound, the viability, T/C (second compound 0.0949 µM, first compound 0.00316 µM) was 88%, the viability, T/C (second compound 0.0949 µM, first compound 0.01 µM) was 83.3% and the viability, T/C [25] was 99.1%. For the same compound, the viability, T/C [26] was 82.5%, the viability, T/C [27] was 72.6% and the viability, T/C [28] was 56%. It also gave a viability, T/C (second compound 0.3 µM, first compound 0.00316 µM) of 89.4%, a viability, T/C (second compound 0.3 µM, first compound 0.01 µM) of 78.5% and a viability, T/C [31] of 84.2%. For the same compound, the viability, T/C [32] was 82.9%, the viability, T/C [33] was 62.9% and the viability, T/C [34] was 42.8%.
